Assay [1] in a line: Induction of singlet oxygen production in DMSO assessed as decrease in DPBF level by measuring quantum yield after irradiation with halogen light by spectroscopic analysis relative to control. Set-up: scale not given: the % may be the effect or the level left.
The test system of assay [2] is BALB/3T3. The experiment in a line: Photocytotoxicity against mouse BALB/3T3 cells at >42 uM preincubated for 48 hrs followed by 3.3 J/cm2 UV light irradiation for 500 sec measured after 18 hrs by Alamar blue assay. Format: functional, cell-based. In general terms: The colour change of resazurin is a common sign of viable cells or microbes.
Assay [3] deals with BALB/3T3. The experiment in a line: Photocytotoxicity against mouse BALB/3T3 cells assessed as cell death at 2.9 uM preincubated for 48 hrs followed by 3.3 J/cm2 UV light irradiation for 500 sec measured after 18 hrs by Alamar blue assay relative to control. It counts as functional.

SMILES strings stand for the structures. The source made the active and inactive calls. The rule behind the calls is not given here.

Take `O=c1ccc2cc3ccoc3cc2o1`: the Activity in assay [1] was determined as 17%. Further, in the assay with BALB/3T3 [2], the result was Active.

In the case of `COc1c2occc2c(Cn2cc(CO[C@@H]3O[C@H](CO)[C@H](O)[C@H](O)[C@H]3O)nn2)c2ccc(=O)oc12`, the Activity in assay [1] came to 24%. The outcome with BALB/3T3 [2] was Active.

For `COc1c2occc2c(Cn2cc(CO[C@@H]3O[C@H](CO)[C@@H](O)[C@H](O)[C@H]3O)nn2)c2ccc(=O)oc12`, the Activity in the assay on BALB/3T3 [3] was 15%; in assay [1], 24%. Further, the outcome in the assay with BALB/3T3 [2] was Active.
